We go through 4 molecules from patent US20060276433A1, “Hydrazone derivative” (priority 2003, published 2006).

For experiment [1], the target named is T1, amyloid β-protein (human, 1-40) (Homo sapiens, UniProt P05067). As to the kind of experiment: Effect of drugs on the amyloid formation of amyloid β-protein (Thioflavine T method). To be noted: read-out: IC50 value (50% inhibition concentration of amyloid formation). The class given is biochemical. On the procedure: Thereafter, the quantity of amyloid formation was measured by the Thioflavine T method (Naiki et al., Lab Invest, 65, 104-110, 1991). The measured value was converted to a relative value (%) based on the quantity of amyloid formation in the drug-non-added control group, and then 50% inhibition concentration (IC50 value) of amyloid formation was calculated.
T1 sequence (P05067 18-40): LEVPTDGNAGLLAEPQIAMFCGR

Experiment [2] deals with amyloid (senile plaque) in human Alzheimer disease brain sections. As to the kind of experiment: Specific binding to amyloid in Alzheimer disease brain sections (fluorescence microscopy). To be noted: 50 μM in TBS, formalin-fixed human Alzheimer disease brain sections, fluorescence microscope. The protocol: Specific Binding to Amyloid
The compound of Example 21 having fluorescence was dissolved in TBS at a concentration of 50 μM and incubated with formalin-fixed human Alzheimer disease brain sections (purchased from BioChain). Thereafter, the sections were washed with saturated lithium carbonate/40% ethanol, dried and then observed under a fluorescence microscope.
Thus, it was shown that the compound of the present invention can specifically bind to amyloid in the Alzheimer brain.

Experiment [3] concerns the target T2, Amyrin (Homo sapiens, UniProt P10997).
T2 construct: Amyrin (10 μM; purchased from Bachem), as an amyloid forming protein; purchased Bachem
T2 sequence (P10997 34-70 limits assumed): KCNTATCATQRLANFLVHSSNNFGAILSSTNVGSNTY
In words: Effect on amyloid formation of various amyloid forming proteins (Thioflavine T method): Amyrin. In kind it is biochemical. To be noted: Amyrin 10 μM, PBS(−), room temperature, sampled next day; read-out: IC50 (50% inhibition concentration of amyloid formation), Amyrin.

For experiment [4], the target named is Amyloid β-protein (human, 1-42) (Homo sapiens, UniProt P05067). As to the kind of experiment: Effect on amyloid formation of various amyloid forming proteins (Thioflavine T method): Aβ1-42. In kind it is biochemical. The conditions noted are these: Aβ1-42 10 μM, PBS(−), room temperature, sampled next day; read-out: IC50 (50% inhibition concentration of amyloid formation), Aβ1-42.
Amyloid β-protein (human, 1-42), sequence (P05067 18-42): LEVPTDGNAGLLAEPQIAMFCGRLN

Experiment [5] has as its target partial fragment of prion protein (PrP 118-135) (Homo sapiens, UniProt P04156). As to the kind of experiment: biochemical.
Experiment [6] addresses T1, amyloid β-protein (human, 1-40). In words: Effect on amyloid formation of various amyloid forming proteins (Thioflavine T method): Aβ1-40. The class given is biochemical. To be noted: Aβ1-40 10 μM, PBS(−), room temperature, sampled next day; read-out: IC50 (50% inhibition concentration of amyloid formation), Aβ1-40.
Setting [7] is: 15 μM amyloid β-protein (human, 1-40), PBS(−), room temperature, 1 day, drug 1.6, 8 or 40 μM.

On to `Nc1c(/N=N/c2ccc(-c3ccc(/N=N/c4cc(S(=O)(=O)O)c5ccccc5c4N)cc3)cc2)cc(S(=O)(=O)O)c2ccccc12` [Congo Red, Congo red, reference compound], for which, in experiment [1] (setting [7]), the IC50 worked out at 870 nM.

As to `Cc1ccc2nc(-c3ccc(N/N=C/c4ccncc4)cc3)sc2c1` [Example 21, 4-Pyridinecarboxyaldehyde 4-(6-methylbenzothiazol-2-yl)phenylhydrazone], the “Fluorescence binding to amyloid in brain sections” value in experiment [2] is recorded as “accumulation of fluorescence was found in the senile plaque”.

As for `CC(=C(C#N)C#N)c1ccc2cc(N(C)C)ccc2c1` [DDNP], the IC50 in experiment [1] turned out to be 3230 nM.

With `C(=NNc1ccc(-c2cnco2)cc1)c1ccncc1` [Example 3, 4-Pyridinecarboxyaldehyde 4-(oxazol-5-yl)phenylhydrazone], the IC50 was 2080 nM in experiment [3]; 2940 nM in experiment [1] (setting [7]); 700 nM in experiment [4]; 1970 nM in experiment [5]; 1160 nM in experiment [6].
